Measured values: patent publication EP4803513A1, “SUBSTITUTED QUINAZOLINE COMPOUND, PREPARATION METHOD THEREFOR, PHARMACEUTICAL COMBINATION THEREOF, AND USE THEREOF” (Hongyun Biotech Co., Ltd., priority 2023, dated 2025)

Legend:
Type in all cases: cell-based
BRK-BaF3 cells = assay: Cell antiproliferative activity assay (CCK-8), BRK-BaF3; conditions: 72 h, CCK-8, 3 days incubation
In short: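 Growth inhibition over 3 days, with compound serially diluted 3-fold from a 10 µM top concentration. Cells seeded at 100,000 cells/mL; WT-BaF3 medium carried 10% WEHI supernatant as the IL-3 source. Viability read by CCK-8 OD450 after 2-4 h; IC50 from blank-subtracted curve fit.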

WT-BaF3 cells = assay: Cell antiproliferative activity assay (CCK-8), WT-BaF3 (broad-spectrum cytotoxicity); conditions: 72 h; WT-BaF3 cells (IL-3 supplemented), CCK-8, 3 days incubation
Protocol: The activity of compounds against BRK kinase can be evaluated by their inhibition of the growth of the BRK kinase-stably transfected BaF3 cell line (BRK-BaF3) and wild-type BaF3 cells (WT-BaF3). […] The larger the ratio of the half-maximal growth inhibitory concentration (IC50) of a compound between WT-BaF3 and BRK-BaF3 cells, the better the selectivity of the compound.
(§1) BRK-BaF3, WT-BaF3, WEHI cell line, and breast cancer cell line T47D were cultured using RPMI 1640 Basal medium or DMEM (Dulbecco's Modified Eagle Medium) (Shanghai Peiyuan Biotechnology, L220KJ), supplemented with 10% FBS (Gibco, REF 10099-141C) and 1% P/S (Shanghai Peiyuan Biotechnology, S110JV), in an incubator (Thermo 3020) at 37°C with 5% CO2. Cell viability was above 95%. Cells were passaged at a 3:1 ratio every 3-4 days. For WT-BaF3 cells, WEHI cells were first cultured, and their culture supernatant was filtered through a 0.22 µm filter. This supernatant was added at 10% to the regular culture medium to supplement IL-3 required for WT-BaF3 cell proliferation, which served as the culture medium for WT-BaF3. For testing, cells were first collected and counted, then prepared into a cell suspension at 100,000 cells/mL and plated at 100 µL per well. Drug concentrations started from 10 µM and were serially diluted 3:1. After incubation for 3 days, 20 µL of CCK-8 detection reagent (Targetmol C005) was added to each well. After incubation for 2-4 hours, OD450 was measured using a microplate reader (Varioskan LUX, Thermo Scientific). After subtracting the blank background, the curve was fitted and the IC50 was calculated using XLfit software.

T47D cells = assay: Cell antiproliferative activity assay (CCK-8), T47D; conditions: Homo sapiens, 72 h, breast cancer cell line T47D, incubation for 3 days
Protocol: as §1
In addition, the following table exemplarily lists the IC50 values of some compounds of the present invention against T47D cells.

SMILES | IC50 (BRK-BaF3 cells) [nM] | IC50 (WT-BaF3 cells) [nM] | IC50 (T47D cells) [nM]
Cc1nn(CCO)cc1Nc1ncc2cc(-c3ccnc(N)c3)cc(C(C)C)c2n1 [I-14] | ≤ 20 | 500 to 2500 | 500 to 1000
Cc1nn(CCO)cc1Nc1ncc2cc(-c3cccnc3C)cc(C(C)C)c2n1 [I-22] | ≤ 20 | 500 to 2500 | 500 to 1000
Cc1nn(CCO)cc1Nc1ncc2cc(-c3cccnc3N)cc(C(C)C)c2n1 [I-27] | ≤ 20 | 500 to 2500 | 500 to 1000
Cc1ccncc1-c1cc(C(C)C)c2nc(Nc3cn(CCO)nc3C)ncc2c1 [I-32] | ≤ 20 | 500 to 2500 | ≤ 500
Cc1nn(CCO)cc1Nc1ncc2cc(-c3cncc(F)c3C)cc(C(C)C)c2n1 [I-36] | ≤ 20 | 500 to 2500 | ≤ 500
Cc1nc(P(C)(C)=O)ccc1Nc1ncc2cc(-c3nccnc3C)cc(C(C)C)c2n1 [II-1] | ≤ 20 | > 2500 | 
COc1nc(P(C)(C)=O)ccc1Nc1ncc2cc(-c3nccnc3C)cc(C(C)C)c2n1 [II-2] | ≤ 20 | > 2500 | 
Cc1nccnc1-c1cc(C(C)C)c2nc(Nc3ccc(P(C)(C)=O)nc3)ncc2c1 [II-3] | ≤ 20 | > 2500 | 
Cc1cc(P(C)(C)=O)ncc1Nc1ncc2cc(-c3nccnc3C)cc(C(C)C)c2n1 [II-4] | 20 to 100 | > 2500 | 
COc1cc(P(C)(C)=O)ncc1Nc1ncc2cc(-c3nccnc3C)cc(C(C)C)c2n1 [II-5] | ≤ 20 | > 2500 | 
Cc1cc(Nc2ncc3cc(-c4nccnc4C)cc(C(C)C)c3n2)cnc1P(C)(C)=O [II-6] | ≤ 20 | > 2500 | 
COc1cc(Nc2ncc3cc(-c4nccnc4C)cc(C(C)C)c3n2)cnc1P(C)(C)=O [II-7] | 20 to 100 | 500 to 2500 | 
Cc1nccnc1-c1cc(C(C)C)c2nc(Nc3ccc(P(C)(C)=O)cn3)ncc2c1 [II-8] | 20 to 100 | > 2500 | 
Cc1cc(Nc2ncc3cc(-c4nccnc4C)cc(C(C)C)c3n2)ncc1P(C)(C)=O [II-9] | 20 to 100 | > 2500 | 
Cc1nc(Nc2ncc3cc(-c4nccnc4C)cc(C(C)C)c3n2)ccc1P(C)(C)=O [II-10] | 20 to 100 | > 2500 | 
Cc1cc(P(C)(C)=O)ccc1Nc1ncc2cc(-c3nccnc3C)cc(C(C)C)c2n1 [II-13] | 20 to 100 | > 2500 | 
COc1cc(P(C)(C)=O)ccc1Nc1ncc2cc(-c3nccnc3C)cc(C(C)C)c2n1 [II-14] | ≤ 20 | > 2500 | 
CCc1cc(P(C)(C)=O)ccc1Nc1ncc2cc(-c3nccnc3C)cc(C(C)C)c2n1 [II-15] | ≤ 20 | > 2500 | 
Cc1nccnc1-c1cc(C(C)C)c2nc(Nc3ccc(P(C)(C)=O)c(Cl)c3F)ncc2c1 [II-17] | ≤ 20 | 500 to 2500 | 
Cc1cc(Nc2ncc3cc(-c4nccnc4C)cc(C(C)C)c3n2)c(F)cc1P(C)(C)=O [II-21] | ≤ 20 | 500 to 2500 | 

SMILES | IC50 (BRK-BaF3 cells) [nM] | IC50 (WT-BaF3 cells) [nM] | IC50 (T47D cells) [nM]
Cc1nccnc1-c1cc(C2CC2)c2nc(Nc3ccc(P(C)(C)=O)cc3)ncc2c1 [II-30] | ≤ 20 | 500 to 2500 | 
Cc1nccnc1-c1cc(C2CC2)c2nc(Nc3ccc(P(C)(C)=O)cc3F)ncc2c1 [II-31] | ≤ 20 | > 2500 | 
COc1nc(P(C)(C)=O)ccc1Nc1ncc2cc(-c3nccnc3C)cc(C3CC3)c2n1 [II-32] | ≤ 20 | 500 to 2500 | 
Cc1nccnc1-c1cc(C(F)(F)F)c2nc(Nc3ccc(P(C)(C)=O)cc3)ncc2c1 [II-34] | ≤ 20 | > 2500 | 
Cc1nccnc1-c1cc(C(F)(F)F)c2nc(Nc3ccc(P(C)(C)=O)cc3F)ncc2c1 [II-35] | 20 to 100 | > 2500 | 
Cc1ncnc(C)c1-c1cc(C(C)C)c2nc(Nc3ccc(P(C)(C)=O)nc3)ncc2c1 [II-42] | 20 to 100 | > 2500 | 
Cc1cc(P(C)(C)=O)ncc1Nc1ncc2cc(-c3c(C)ncnc3C)cc(C(C)C)c2n1 [II-43] | 20 to 100 | > 2500 | 
COc1cc(P(C)(C)=O)ncc1Nc1ncc2cc(-c3c(C)ncnc3C)cc(C(C)C)c2n1 [II-44] | 20 to 100 | > 2500 | 
Cc1cc(Nc2ncc3cc(-c4c(C)ncnc4C)cc(C(C)C)c3n2)cnc1P(C)(C)=O [II-45] | ≤ 20 | > 2500 | 
Cc1ncnc(C)c1-c1cc(C(C)C)c2nc(Nc3ccc(P(C)(C)=O)cc3)ncc2c1 [II-50] | 20 to 100 | > 2500 | 
COc1cc(P(C)(C)=O)ccc1Nc1ncc2cc(-c3c(C)ncnc3C)cc(C(C)C)c2n1 [II-53] | 20 to 100 | > 2500 | 
COc1cc(Nc2ncc3cc(-c4c(C)ncnc4C)cc(C(C)C)c3n2)ccc1P(C)(C)=O [II-54] | ≤ 20 | > 2500 | 
Cc1ncnc(C)c1-c1cc(C(C)C)c2nc(Nc3ccc(P(C)(C)=O)c(C)c3F)ncc2c1 [II-56] | ≤ 20 | > 2500 | 
Cc1cc(Nc2ncc3cc(-c4c(C)ncnc4C)cc(C(C)C)c3n2)c(F)cc1P(C)(C)=O [II-59] | 20 to 100 | > 2500 | 
COc1cc(Nc2ncc3cc(-c4cccnc4)cc(C4CC4)c3n2)ccc1P(C)(C)=O [II-65] |  |  | ≤ 500
COc1cc(Nc2ncc3cc(-c4cnccc4C)cc(C4CC4)c3n2)ccc1P(C)(C)=O [II-66] |  |  | ≤ 500
Cc1nccnc1-c1cc(C)c2nc(Nc3ccc(P(C)(C)=O)cc3)ncc2c1 [II-68] | 20 to 100 | > 2500 | 
COc1cc(Nc2ncc3cc(-c4nccnc4C)cc(C(C)C)c3n2)cc(OC)c1P(C)(C)=O [II-73] | ≤ 20 | 500 to 2500 | 
Cc1nccnc1-c1cc(C2CC2)c2nc(Nc3ccc(P(C)(C)=O)c(O)c3)ncc2c1 [II-75] | ≤ 20 | > 2500 | 
Cc1nccnc1-c1cc(C2CC2)c2nc(Nc3cc(O)c(P(C)(C)=O)cc3F)ncc2c1 [II-76] | ≤ 20 | > 2500 | 

SMILES | IC50 (BRK-BaF3 cells) [nM] | IC50 (WT-BaF3 cells) [nM] | IC50 (T47D cells) [nM]
Cc1c[nH]c(=O)cc1-c1cc(C(C)C)c2nc(Nc3cnn(C4COC4)c3C)ncc2c1 [III-41] | ≤ 20 | > 2500 | 
Cc1c[nH]c(=O)cc1-c1cc(C2CC2)c2nc(Nc3cnn(C4COC4)c3C)ncc2c1 [III-83] | ≤ 20 | > 2500 | 
Cc1nn(C)cc1Nc1ncc2cc(-c3c(C#N)cnn3C)cc(C(C)C)c2n1 [III-86] | ≤ 20 | > 2500 | 
Cc1nn(C)cc1Nc1ncc2cc(-c3c(C)ncnc3C)cc(C(C)C)c2n1 [III-93] | ≤ 20 | > 2500 | 
COCCn1cc(Nc2ncc3cc(-c4c(C)ncnc4C)cc(C(C)C)c3n2)c(C)n1 [III-94] | ≤ 20 | > 2500 | 
Cc1nn(C2COC2)cc1Nc1ncc2cc(-c3c(C)ncnc3C)cc(C(C)C)c2n1 [III-95] | 20 to 100 | 500 to 2500 | 
Cc1nn(CC(N)=O)cc1Nc1ncc2cc(-c3cncnc3C)cc(C(C)C)c2n1 [III-96] | 20 to 100 | > 2500 | 
Cc1nn(C2COC2)cc1Nc1ncc2cc(-c3c(C)ncnc3C)cc(C3CC3)c2n1 [III-98] | 20 to 100 | 500 to 2500 | 
Cc1nn(C2COC2)cc1Nc1ncc2cc(-c3nccnc3C)cc(C(C)C)c2n1 [III-104] | ≤ 20 | > 2500 | 
Cc1nn(C2CCN(C)CC2)cc1Nc1ncc2cc(-c3nccnc3C)cc(C(C)C)c2n1 [III-106] | ≤ 20 | 500 to 2500 | 
Cc1nccnc1-c1cc(C(C)C)c2nc(Nc3cnn(C4CCN(C)CC4)c3C)ncc2c1 [III-107] | ≤ 20 | > 2500 | 
Cc1nn(CCN)cc1Nc1ncc2cc(-c3nccnc3C)cc(C(C)C)c2n1 [III-108] | ≤ 20 | 100 to 500 | 
CCN(C)CCn1cc(Nc2ncc3cc(-c4nccnc4C)cc(C(C)C)c3n2)c(C)n1 [III-109] | ≤ 20 | > 2500 | 
COCCN(C)CCn1cc(Nc2ncc3cc(-c4nccnc4C)cc(C(C)C)c3n2)c(C)n1 [III-110] | ≤ 20 | > 2500 | 
Cc1nn(CC(N)=O)cc1Nc1ncc2cc(-c3nccnc3C)cc(C(C)C)c2n1 [III-111] | ≤ 20 | > 2500 | 
Cc1nn(CCN=S(C)(C)=O)cc1Nc1ncc2cc(-c3nccnc3C)cc(C(C)C)c2n1 [III-112] | 20 to 100 | > 2500 | 
Cc1nn(C2COC2)cc1Nc1ncc2cc(-c3nccnc3C)cc(C3CC3)c2n1 [III-113] | ≤ 20 | 500 to 2500 | 
Cc1nn(CC(N)=O)cc1Nc1ncc2cc(-c3nccnc3C)cc(C3CC3)c2n1 [III-114] | ≤ 20 | 500 to 2500 | 
Cc1nn(C)cc1Nc1ncc2cc(-c3cncc(F)c3C(N)=O)cc(C(C)C)c2n1 [III-127] | 20 to 100 | > 2500 | 
Cc1nn(CC(N)=O)cc1Nc1ncc2cc(-c3cccnc3C)cc(C(C)C)c2n1 [III-128] | ≤ 20 | > 2500 | 
